Data published in US6706493B2, “DNA encoding a cholecystokinin receptor” (The United States of America as represented by the …, priority 1992, dated 2004).
Where no end group is shown, it is not given here.

Tests used:
substance P receptor = target: T1, substance P receptor (Rattus norvegicus, UniProt P14600); assay: L-364,718 on SP response in oocytes injected with SP receptor mRNA; assay type: cell-based
T1 construct: expressed in transfected cells; host or cells: Xenopus oocytes injected with receptor mRNA
T1 sequence (P14600 whole entry): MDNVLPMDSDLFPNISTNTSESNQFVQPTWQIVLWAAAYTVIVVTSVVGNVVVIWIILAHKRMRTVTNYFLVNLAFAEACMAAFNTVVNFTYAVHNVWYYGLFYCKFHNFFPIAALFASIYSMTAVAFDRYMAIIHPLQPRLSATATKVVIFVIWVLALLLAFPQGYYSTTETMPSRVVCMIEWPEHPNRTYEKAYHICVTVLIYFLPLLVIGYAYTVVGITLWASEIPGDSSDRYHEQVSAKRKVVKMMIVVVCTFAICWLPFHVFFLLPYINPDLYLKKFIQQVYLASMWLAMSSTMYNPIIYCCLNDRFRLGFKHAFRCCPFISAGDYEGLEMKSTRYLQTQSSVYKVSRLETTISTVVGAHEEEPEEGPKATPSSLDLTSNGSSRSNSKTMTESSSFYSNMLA
From the text: (§1) Inhibition was specific for CCKA receptors (i.e., there was no inhibition of SP or ACh response in oocytes injected with their respective receptor mRNAs).

acetylcholine receptor = assay: L-364,718 on ACh response in oocytes injected with ACh receptor mRNA; assay type: cell-based
From the text: as §1

CCKB receptor = target: T2, CCKB receptor (Rattus norvegicus, UniProt P30553); conditions: COS-7 cells, rat CCKB receptor cDNA, 50 pM radioligand
T2 sequence (P30553 1-452): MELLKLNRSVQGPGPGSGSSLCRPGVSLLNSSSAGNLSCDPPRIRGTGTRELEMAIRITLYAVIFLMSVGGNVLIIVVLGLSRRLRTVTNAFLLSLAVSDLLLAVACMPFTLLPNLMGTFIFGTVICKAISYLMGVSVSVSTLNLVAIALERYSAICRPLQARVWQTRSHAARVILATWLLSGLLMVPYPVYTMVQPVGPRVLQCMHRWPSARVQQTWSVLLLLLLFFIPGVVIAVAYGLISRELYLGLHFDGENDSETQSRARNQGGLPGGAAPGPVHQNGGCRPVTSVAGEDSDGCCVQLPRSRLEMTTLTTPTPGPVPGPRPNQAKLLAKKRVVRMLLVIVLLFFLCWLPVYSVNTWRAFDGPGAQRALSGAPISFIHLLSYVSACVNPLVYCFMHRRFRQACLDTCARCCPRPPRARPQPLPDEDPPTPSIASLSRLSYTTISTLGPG
Experimental: Each experiment was performed in duplicate and the results given are the means from at least two separate experiments.
Two micrograms of PCDL-SRα containing either the CCKA coding region insert subcloned at an Xba 1 site in the sense orientation or the CCKB insert subcloned at an Eco R1 site in the sense orientation were transfected into a near confluent 100 mm tissue culture plate containing approximately 1×10^6 COS-7 cells using a DEAE/dextran method. Approximately 48 hours post transfection, the cells were washed twice with phosphate buffered saline (PBS), pH 7.4, 0.1% BSA at 4° C., scraped from the plate in Dulbeccols Modified Eagle's Medium (DMEM), 0.1% BSA, 4° C., centrifuged at 400×G, and resuspended at approximately 3-105 cells per ml in DMEM, 0.1% BSA, 4° C. […] Cells were subsequently washed three times with 2 ml PBS, 0.1% BSA, 4° C. by filtration on glass filters (Whatman GF/B) using a suction manifold (Millipore). Filters were assayed for gamma radioactivity (Packard, Auto-Gamma).

CCKA receptor = target: T3, CCKA receptor (Rattus norvegicus, UniProt P30551); assay: Ligand-induced chloride current in Xenopus oocytes injected with rat CCKA receptor mRNA; assay type: cell-based; conditions: oocytes voltage clamped at -70 mV, 1 and 2 days after injection; FIG. 5A: 1 μM CCK-8, 1 μM gastrin-releasing peptide, 4 μM substance P
T3 construct: expressed in transfected cells; host or cells: Xenopus oocytes injected with in vitro transcribed RNA (clone nt 5 to 1506 in pcDNA-1)
T3 sequence (P30551 1-444): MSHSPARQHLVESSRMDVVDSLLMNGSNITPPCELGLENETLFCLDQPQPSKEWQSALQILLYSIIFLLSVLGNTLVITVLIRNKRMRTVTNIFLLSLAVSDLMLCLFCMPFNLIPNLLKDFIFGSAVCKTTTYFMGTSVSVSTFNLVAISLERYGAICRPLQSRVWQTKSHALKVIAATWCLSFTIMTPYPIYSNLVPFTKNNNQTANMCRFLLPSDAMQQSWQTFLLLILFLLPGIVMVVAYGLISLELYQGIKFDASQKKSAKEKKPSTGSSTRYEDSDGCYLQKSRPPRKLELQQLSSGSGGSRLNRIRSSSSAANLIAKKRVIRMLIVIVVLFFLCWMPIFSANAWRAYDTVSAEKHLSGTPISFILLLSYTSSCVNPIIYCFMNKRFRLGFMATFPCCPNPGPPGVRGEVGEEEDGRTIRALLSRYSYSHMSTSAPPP
Experimental: FIGS. 5A and 5B. Expression of the CCKA receptor in Xenopus oocytes. Ligand, induced chloride currents measured in the same oocytes one (A) and two (B) days after injection of mRNA (25 ng) in vitro transcribed from CCKA receptor cDNA cloned from rat pancreas. A. Response to agonists.
DNA was in vitro transcribed using T7 RNA polymerase from a CCK receptor clone template (5 to 1506, FIG. 1, SEQ NO:13) in pcDNA-1 (5 μg linearized with Apa 1) in the presence of the cap analog m^7G(5′)ppp(5′)G as recommended by the manufacturer (Promega). Xenopus oocytes were injected with 50 nl of approximately 25 ng of transcribed RNA. At 1-2 days, oocytes were voltage clamped at −70 mV, ligands were applied rapidly and directly to the constantly perfused bath and the ligand dependent Cl^− current measured.

CN1C(=O)[C@@H](NC(=O)c2cc3ccccc3[nH]2)N=C(c2ccccc2)c2ccccc21 [L-364,718]
inhibition of SP response (substance P receptor): no inhibition | inhibition of ACh response (acetylcholine receptor): no inhibition

Cc1cccc(NC(=O)N[C@@H]2N=C(c3ccccc3)c3ccccc3N(C)C2=O)c1 [L-365,260]
potency at inhibiting 125I-BH-CCK-8 binding relative to L-364,718 (CCKB receptor): 10-100 fold

gastrin-releasing peptide (VPLPAGGGTVLTKMYPRGNHWAVGHLM; ends and bridges not checked; UniProt P07492 24-50, looked up)
response of oocytes to agonist (ligand dependent Cl- current) (CCKA receptor): not

substance P
response of oocytes to agonist (ligand dependent Cl- current) (CCKA receptor): not
